Laboratory results from US11827866B2 (priority 2007, dated 2023).

Test system: protease
Format: biochemical
Conditions: pH 9

Row | Compound | Residual activity (4 weeks at 40° C.) [%] | Residual activity (2 weeks at 40° C.) [%]
1 | [Cl][Al]([Cl])[Cl] [Aluminium Chloride] | 16 | 
2 | Cl.N [Armonium Chloride] | 49 | 
3 | N.O=[N+]([O-])O [Armonium Nitrate] | 41 | 
4 | N.N.O=S(=O)(O)O [Armonium Sulfate] | 43 | 
5 | [Ca+2].[Cl-].[Cl-] [Calcium Chloride] | 22 | 
6 | [Cl-].[Cl-].[Mg+2] [Magnesium Chloride] | 79 | 
7 | O=[N+]([O-])[O-].O=[N+]([O-])[O-].[Mg+2] [Magnesium Nitrate] | 55 | 
8 | O=S(=O)([O-])[O-].[Mg+2] [Magnesium Sulfate] | 37 | 
9 | [Cl-].[K+] [Potassium Chloride] | 34 | 
10 | CC(=O)[O-].[Na+] [Sodium Acetate] | 20 | 
11 | O=C([O-])[O-].[Na+].[Na+] [Sodium Carbonate] | 15 | 
12 | [Cl-].[Na+] [Sodium Chloride] | 32 | 
13 | O=C([O-])CC(O)(CC(=O)[O-])C(=O)[O-].[Na+].[Na+].[Na+] [Sodium Citrate] | 1 | 
14 | O=C[O-].[Na+] [Sodium Formiate] | 29 | 
15 | O=[N+]([O-])[O-].[Na+] [Sodium Nitrate] | 20 | 
16 | O=P(O)(O)O [Sodium Phosphate] | 13 | 
17 | O=S(=O)([O-])[O-].[Na+].[Na+] [Sodium Sulfate] | 22 | 
18 | [Cl-].[Cl-].[Zn+2] [Zink Chloride] |  | 102
19 | O=S(=O)([O-])[O-].[Zn+2] [Zink Sulfate] |  | 88

Target: subtilisin (Bacillus licheniformis, UniProt P00780)
Sequence (P00780 106-379): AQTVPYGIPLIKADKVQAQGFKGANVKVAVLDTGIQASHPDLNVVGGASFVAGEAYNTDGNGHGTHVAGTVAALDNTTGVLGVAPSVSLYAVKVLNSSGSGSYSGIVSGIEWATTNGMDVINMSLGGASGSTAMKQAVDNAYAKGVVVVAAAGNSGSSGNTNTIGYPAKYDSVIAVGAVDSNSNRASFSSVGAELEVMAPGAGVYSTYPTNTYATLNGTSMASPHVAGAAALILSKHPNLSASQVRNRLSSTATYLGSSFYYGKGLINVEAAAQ
Conditions: literature statement, Biochem. Biophys. Res. Com. 176, 1991; cited from earlier work

Row | Compound | capacity as subtilisin inhibitor
20 | OB(O)c1cc(Cl)cc(Cl)c1 [3,5-dichlorophenylboronic acid] | particularly effective
21 | CB(O)O [methylboronic acid] | poorest inhibitor
